In patent US20240003908A1, “POLYOL BIOMARKERS FOR CONGENITAL DISORDERS OF GLYCOSYLATION” (Mayo Foundation for Medical Education and Research, priority 2020, published 2024):
Marks after values point to notes of the source that are not given here.

Assays:
child with PMM2-CDG [1] = assay: Single patient (P1) study: clinical efficacy (ICARS, NPCRS, BMI, weight); assay type: in vivo, human
Experimental: Prospectively collected clinical and laboratory data in 24 PMM2-CDG patients: The genetic, laboratory, metabolic, and clinical data of 24 PMM2-CDG patients were evaluated (TABLES 2A and 2B). Disease severity was assessed by Nijmegen Pediatric CDG Rating Scale (NPCRS), (most severe=82; mild (0-14), moderate (15-25), severe (>26)) (Achouitar et al., J Inherit Metab Dis 34:923-927, 2011; and Martinez-Monseny et al., Ann Neurol 85:740-751, 2019). Patient P1 and twin patients P4 and P5 also were discussed elsewhere (Qian et al., JIMD Rep 56:27-33, 2020; and Jaeken et al., Ped Res 14:179, 1980). P1, enrolled in a single IND clinical trial, was additionally evaluated by the International cooperative ataxia rating scale (ICARS) (Trouillas et al., J Neurol Sci 145:205-211, 1997), which assesses limb ataxia, dysarthria, posture and gait disturbances, and oculomotor disorders (0=normal; 100=most severe). Urinary polyols including sorbitol and mannitol were analyzed by GC/MS in 23 out of the 24 PMM2-CDG patients (patient P6 was deceased). In addition, functional in vitro data was collected from the fibroblasts of P1-P6, P8, P10, P17, P19, and P24.
(§1) Study design: An open label, single patient (P1) compassionate use study was designed to assess the safety and tolerability of oral epalrestat therapy in a child with PMM2-CDG.
(§2) Patient assessment: Prior to the first dose of epalrestat and at 1, 2, 3, 6, 8, 9, 12 months during treatment, concomitant medications and vital signs were recorded and the patient was evaluated using the NPCRS. In addition, blood was drawn for serum chemistry, hematology, and plasma levels of epalrestat. Urine was collected for polyol measurement at baseline and twice over the course of 12 months of therapy.
(§3) Drug administration: Epalrestat was administered orally, 3 times per day (TID) before meals in a divided dose (0.8 mg/kg/day; 5 mg TID) of epalrestat (Ono Pharmaceuticals, Osaka, Japan) starting on Day 1 of the study.
(§4) Safety and efficacy: Safety measures included vital signs, change in CBC, liver function (INR, bilirubin, transaminases, and albumin) in blood, change in liver elastography, and following the pharmacokinetic profile of epalrestat. The efficacy of epalrestat was studied by clinical follow up (physical exam, NPCRS, ICARS), standard laboratory tests, and transferrin glycoform analysis by mass spectrometry.

child with PMM2-CDG [2] = assay: Single patient (P1) study: safety and tolerability of oral epalrestat; assay type: in vivo, human; settings: for liver elastography Interquartile Range to Median ratio: normal below 25%
Experimental: as §1, §2, §3, §4

PMM enzyme = PMM enzyme activity in PMM2-CDG patient fibroblasts treated with epalrestat (spectrophotometric); assay type: cell-based, human; settings: for Fold change 5 μM epalrestat (PMM enzyme activity) / Fold change 10 μM epalrestat (PMM enzyme activity) / Fold change 20 μM epalrestat (PMM enzyme activity): 24 hours, baseline = 1; for Highest fold change (PMM enzyme activity): at best dose; for Best dose: of 5, 10, 20 μM
Experimental: Effect of epalrestat on […] enzyme in vitro: Patient-derived and control fibroblasts (GM5381, GM5400; GM5757, GM00038, GM8680, GM01863, GM8400; Coriell Institute, Camden, NJ) were cultured in Minimum Essential Media (MEM; Gibco, Carlsbad, CA; 1 g/L glucose) supplemented with 10% Fetal Bovine Serum (FBS; Gibco), […] (P/S) and maintained in an incubator at 37° C., 5% CO2 in the presence and absence of epalrestat for 24 hours (Iyer et al., Disease Models & Mechanisms 12:11, 2019). Cells were cultured and harvested by trypsinization with 0.05% Trypsin-EDTA (Gibco). PMM and phosphomannose isomerase (MPI) activity were assayed by spectrophotometric measurements (Van Schaftingen and Jaeken, FEBS Lett 377:318-320, 1995). The effects of epalrestat (5 μM, 10 μM, or 20 μM) on PMM-deficient fibroblasts of 11 patients (P1-P6, P8, P10, P17, P19, P24) were evaluated.

[3] = patient P1, throughout the study

## CC(/C=C1\SC(=S)N(CC(=O)O)C1=O)=C\c1ccccc1 [epalrestat]
Child with PMM2-CDG [1]; patient P1, 12-month-follow-up, previous trough 14.8 (30th percentile)
  body mass index (BMI): 18.5
Child with PMM2-CDG [1]; patient P1, epalrestat 0.8 mg/kg/day, within 12 months, from a score of 56
  ICARS score: 42
Child with PMM2-CDG [1]; patient P1, months 6, 9, and 12, baseline 21-24
  NPCRS score: 20-21
Child with PMM2-CDG [2]; after 1 month of therapy, prior to therapy 14%
  liver elastography Interquartile Range to Median ratio: 12%
Child with PMM2-CDG [2]; at 6 months
  liver elastography Interquartile Range to Median ratio: 20%
Child with PMM2-CDG [2]; at 12 months
  liver elastography Interquartile Range to Median ratio: 8%
Child with PMM2-CDG [2]; patient P1
  liver elastography: remained normal
Child with PMM2-CDG [2]; patient P1, 0.27 mg/kg three times a day, 12 months
  adverse events: No adverse events
Child with PMM2-CDG [2]; [3]
  CBC with differential, transaminases, bilirubin, and albumin: remained normal
  antithrombin III levels and International normalized ratio (INR): remained at normal levels
  vital signs: remained normal
PMM enzyme; 10 μM epalrestat, 8/10
  patient fibroblasts that responded: 80%
PMM enzyme; fibroblasts of P1, 5 μM epalrestat
  increase in PMM enzyme activity: 43%
PMM enzyme; fibroblasts of P2, 10 μM epalrestat
  increase in PMM enzyme activity: 33%
PMM enzyme; fibroblasts of P3, 10 μM epalrestat
  increase in PMM enzyme activity: 35%
PMM enzyme; fibroblasts of P4, 20 μM epalrestat
  increase in PMM enzyme activity: 50%
PMM enzyme; fibroblasts of P5, 5 μM epalrestat
  increase in PMM enzyme activity: 35%
PMM enzyme; fibroblasts of P8, 10 μM epalrestat
  increase in PMM enzyme activity: 16%
PMM enzyme; fibroblasts of P10, 5 μM epalrestat
  increase in PMM enzyme activity: 22%
PMM enzyme; fibroblasts of P17, 20 μM epalrestat
  increase in PMM enzyme activity: 10%
PMM enzyme; fibroblasts of P19, 20 μM epalrestat
  increase in PMM enzyme activity: 20%
PMM enzyme; fibroblasts of P24, 10 μM epalrestat
  increase in PMM enzyme activity: 36%
PMM enzyme; fibroblasts of subject P1, 5 μM
  Fold change 5 μM epalrestat (PMM enzyme activity): 1.43
PMM enzyme; fibroblasts of subject P1
  Fold change 10 μM epalrestat (PMM enzyme activity): 1.2
  Fold change 20 μM epalrestat (PMM enzyme activity): 1.2
  Highest fold change (PMM enzyme activity): 1.43*
  Best dose: 5 µM
PMM enzyme; fibroblasts of subject P2, 5 μM
  Fold change 5 μM epalrestat (PMM enzyme activity): 1.01
PMM enzyme; fibroblasts of subject P2
  Fold change 10 μM epalrestat (PMM enzyme activity): 1.33
  Fold change 20 μM epalrestat (PMM enzyme activity): 0.7
  Highest fold change (PMM enzyme activity): 1.33
  Best dose: 10 µM
PMM enzyme; fibroblasts of subject P3, 5 μM
  Fold change 5 μM epalrestat (PMM enzyme activity): 0.86
PMM enzyme; fibroblasts of subject P3
  Fold change 10 μM epalrestat (PMM enzyme activity): 1.35
  Fold change 20 μM epalrestat (PMM enzyme activity): 0.9
  Highest fold change (PMM enzyme activity): 1.35
  Best dose: 10 µM
PMM enzyme; fibroblasts of subject P4, 5 μM
  Fold change 5 μM epalrestat (PMM enzyme activity): 1.26
PMM enzyme; fibroblasts of subject P4
  Fold change 10 μM epalrestat (PMM enzyme activity): 1.36
  Fold change 20 μM epalrestat (PMM enzyme activity): 1.5
  Highest fold change (PMM enzyme activity): 1.36
  Best dose: 10 µM
PMM enzyme; fibroblasts of subject P5, 5 μM
  Fold change 5 μM epalrestat (PMM enzyme activity): 1.35
PMM enzyme; fibroblasts of subject P5
  Fold change 10 μM epalrestat (PMM enzyme activity): 0.93
  Fold change 20 μM epalrestat (PMM enzyme activity): 0.9
  Highest fold change (PMM enzyme activity): 1.35
  Best dose: 5 µM
PMM enzyme; fibroblasts of subject P6, 5 μM
  Fold change 5 μM epalrestat (PMM enzyme activity): 0.98
PMM enzyme; fibroblasts of subject P6
  Fold change 10 μM epalrestat (PMM enzyme activity): 0.97
  Fold change 20 μM epalrestat (PMM enzyme activity): 0.6
PMM enzyme; fibroblasts of subject P8, 5 μM
  Fold change 5 μM epalrestat (PMM enzyme activity): 1.07
PMM enzyme; fibroblasts of subject P8
  Fold change 10 μM epalrestat (PMM enzyme activity): 1.16
  Fold change 20 μM epalrestat (PMM enzyme activity): 1.1
  Highest fold change (PMM enzyme activity): 1.16
  Best dose: 10 µM
PMM enzyme; fibroblasts of subject P10, 5 μM
  Fold change 5 μM epalrestat (PMM enzyme activity): 1.22
PMM enzyme; fibroblasts of subject P10
  Fold change 10 μM epalrestat (PMM enzyme activity): 1.16
  Fold change 20 μM epalrestat (PMM enzyme activity): 1.2
  Highest fold change (PMM enzyme activity): 1.22
  Best dose: 5 µM
PMM enzyme; fibroblasts of subject P17, 5 μM
  Fold change 5 μM epalrestat (PMM enzyme activity): 0.9
PMM enzyme; fibroblasts of subject P17
  Fold change 10 μM epalrestat (PMM enzyme activity): 0.75
  Fold change 20 μM epalrestat (PMM enzyme activity): 1.1
  Highest fold change (PMM enzyme activity): 1.1
  Best dose: 20 µM
PMM enzyme; fibroblasts of subject P19, 5 μM
  Fold change 5 μM epalrestat (PMM enzyme activity): 0.84
PMM enzyme; fibroblasts of subject P19
  Fold change 10 μM epalrestat (PMM enzyme activity): 1.1
  Fold change 20 μM epalrestat (PMM enzyme activity): 1.2
  Highest fold change (PMM enzyme activity): 1.2
  Best dose: 20 µM
PMM enzyme; fibroblasts of subject P24, 5 μM
  Fold change 5 μM epalrestat (PMM enzyme activity): 0.78
PMM enzyme; fibroblasts of subject P24
  Fold change 10 μM epalrestat (PMM enzyme activity): 1.36
  Fold change 20 μM epalrestat (PMM enzyme activity): 0.9
  Highest fold change (PMM enzyme activity): 1.36
  Best dose: 10 µM
PMM enzyme; nine out of ten patients, 5 μM, 10 μM or 20 μM epalrestat
  increase in PMM enzyme activity: ≥ 10%
PMM enzyme; patient fibroblasts, with at least one of 5, 10, 20 μM
  maximal increase in PMM activity: ≤ 50%
